Assay results taken from US10874687B1 (Atea Pharmaceuticals, Inc., priority 2020, dated 2020).
“And” between values parts separate entries of the source, which are not always exact repeats. Equal values may be shown once. Read-outs that look alike come from different tables or passages of the source. Marks after values point to notes of the source that are not given here.

Columns and labels:
SARS-CoV (Urbani) = assay: microbe, parasite or virus in culture; assay type: cell-based, SARS-CoV-1
[1] = Cytotoxicity in mock infected BHK-21 cells (MTT); assay type: cell-based, hamster; conditions: hamster
Procedure: (§1) To determine the cytotoxicity, cells were seeded at an initial density of 1×10^6 cells/mL in 96 well plates containing Minimum Essential Medium with Earles's salts (MEM-E), L-glutamine, 1 mM sodium pyruvate and 25 mg/L kanamycin, supplemented with 10% fetal bovine serum. Cell cultures were then incubated at 37° C. in a humidified 5% CO2 atmosphere in the absence or presence of serial dilutions of test compounds. Cell viability was determined by the MTT method.
(§2) BHK-21 cells: Test compounds were dissolved in DMSO at 100 mM and then diluted in Minimum Essential Medium with Earle's salts (MEM-E) containing 1 mM sodium pyruvate and 25 μg/mL kanamycin, supplemented with 10% FBS (growth medium) to final concentrations of 100, 20, 4 and 0.8 μM (two 24-well replica plates each). After BHK-21 cells were grown to confluency in 96-well plates, growth medium was replaced with fresh maintenance medium (growth medium with 1% inactivated FBS in place of 10% FBS) containing serially diluted test compound and HCoV-229E at a multiplicity of infection (MOI) of 0.01. Uninfected cells in the presence of serially diluted compound were used to assess the cytotoxicity of compounds. After a 3-day incubation at 37° C. in a humidified 5% CO2 atmosphere, cell viability was determined by the MTT method (Pauwels, R et al. J. Virol. Methods 20(4):309-321 (1988)).

mock infected BHK cells = assay: Cytotoxicity in mock infected BHK-21 cells (MTT); assay type: cell-based, hamster; conditions: mock infected BHK cells; MTT; 3 days; Table 2B
Procedure: as §1, §2

HCoV = assay: Protection of MES-1 cells from virus-induced cytopathogenicity (MTT); assay type: cell-based; conditions: unidentified human coronavirus, 72 h, 50% protection of MES-1 cells, day 3 post-infection
Procedure: (§3) After a 3-day incubation at 37° C. cell viability was determined by the MTT method as described by Pauwels et al. (J. Virol. Methods 1988, 20, 309-321).

[2] = Cytotoxicity in mock infected MES-1 cells (MTT); assay type: cell-based; conditions: Table 3A
Procedure: as §1

[3] = tested on: mock infected MES-1 cells; assay: Cytotoxicity in mock infected MES-1 cells (MTT); assay type: cell-based; conditions: 3 days, Table 3B
Procedure: as §1

in vitro [4] = conditions: human
SARS-CoV-2 (WA1) = assay: microbe, parasite or virus in culture; assay type: cell-based
HCoV-229E [5] = assay: microbe, parasite or virus in culture; assay type: cell-based, human coronavirus alpha-229E
in vitro [6] = conditions: human; remark: listed apart in the source
HCoV-OC43 [7] = assay: microbe, parasite or virus in culture; assay type: cell-based, human coronavirus beta-OC43; conditions: Betacoronavirus 1, OC43, Huh-7, read-out: VYR EC90
HCoV-229E [8] = conditions: HCoV-229E in MRC-5 cells; cited from earlier work
HCoV-OC43 [9] = assay: microbe, parasite or virus in culture; assay type: cell-based, human coronavirus beta-OC43
HCoV-229E [10] = assay: Protection of BHK-21 cells from virus-induced cytopathogenicity (MTT); assay type: cell-based, human coronavirus; conditions: for EC50: Human coronavirus 229E
Procedure: as §3
In an initial screening, BHK-21 cells acutely infected with a seasonal human alpha coronavirus, HCoV-229E, were exposed to serial dilutions of Compound 1A. […] No toxicity was detected from either drug.
as §2

[11] = tested on: HCoV-229E, HCoV-OC43, SARS-CoV-1 and SARS-CoV-2; assay: organism not typed; assay type: cell-based, human coronaviruses; conditions: read-out: individual EC90 values
[12] = Plasma PK of metabolites in non-human primates after oral Compound 2A; conditions: cynomolgus, cynomolgus monkey, in vivo, 30 mg/kg
MERS-CoV (EMC) = assay: microbe, parasite or virus in culture; assay type: cell-based
in vitro [13] = conditions: human; remark: listed apart in the source
Huh-7 cells = conditions: human

## CNc1nc(N)nc2c1ncn2[C@@H]1O[C@H](CO[P@@](=O)(N[C@@H](C)C(=O)OC(C)C)Oc2ccccc2)[C@@H](O)[C@@]1(C)F [Compound 1A]
SARS-CoV (Urbani); CC50/EC90, SARS-CoV (Urbani) in Huh7 cells
  Selectivity Index: >250
SARS-CoV (Urbani); Severe acute respiratory syndrome coronavirus, Huh-7, read-out: Virus Yield Reduction Assay EC90
  EC90: 340 nM and 0.2 µg/mL
[1]; mock infected BHK-21 cells, mock infected BHK cells, MTT, 3 days, Table 2A
  CC50 at 3 days: > 100000 nM
[1]; uninfected BHK-21 cells, BHK-21, Table 5
  CC50 at 3 days: > 100000 nM
Mock infected BHK cells
  CC50: > 100000 nM
HCoV; Table 3A
  EC50: 1600 nM
HCoV; Table 3B
  EC50: 2000 nM
[2]
  CC50 at 3 days: > 100000 nM
[3]
  CC50: > 100000 nM
In vitro [4]
  CC50: > 50 µg/mL
SARS-CoV-2 (WA1); Severe acute respiratory syndrome coronavirus 2, HAE, read-out: EC90 of the single replicates
  EC90: 570 nM
SARS-CoV-2 (WA1); Severe acute respiratory syndrome coronavirus 2, HAE, read-out: Virus Yield Reduction Assay EC90
  EC90: 470 nM and 0.37 µg/mL
SARS-CoV-2 (WA1); Severe acute respiratory syndrome coronavirus 2, HAE, read-out: average EC90
  EC90: 540 nM
SARS-CoV-2 (WA1); Severe acute respiratory syndrome coronavirus 2, HAE, read-out: replicate EC90 determinations
  EC90: 0.33 µg/mL
SARS-CoV-2 (WA1); read-out: Virus Yield Reduction Assay EC90
  EC90: 510 nM and 640 nM
SARS-CoV-2 (WA1); read-out: average EC90
  EC90: 500 nM and ~550 nM
HCoV-229E [5]; HCoV-229E in Huh-7
  Selectivity Index (CC50/EC90): >75
HCoV-229E [5]; Human coronavirus 229E, Huh-7, read-out: Neutral Red Assay EC50
  EC50: 1700 nM
HCoV-229E [5]; Human coronavirus 229E, Huh-7, read-out: Neutral Red EC50
  EC50: 1000 nM
HCoV-229E [5]; Human coronavirus 229E, Huh-7, read-out: VYR EC90
  EC90: 710 nM
HCoV-229E [5]; Human coronavirus 229E, Huh-7, read-out: Virus Yield Reduction Assay EC90
  EC90: 1000 nM
HCoV-229E [5]; Human coronavirus 229E, Huh-7, read-out: Visual EC50
  EC50: 1000 nM
HCoV-229E [5]; read-out: Neutral Red Assay EC50
  EC50: 1600 nM
In vitro [6]; Neutral Red Assay CC50
  CC50: > 86000 nM
In vitro [6]; Neutral Red CC50
  CC50: > 50000 nM
In vitro [6]; Visual CC50
  CC50: > 50000 nM
HCoV-OC43 [7]
  EC90: 290 nM
HCoV-229E [8]
  EC50: > 100000 nM
HCoV-OC43 [9]; Betacoronavirus 1, OC43, RD, read-out: Neutral Red Assay EC50
  EC50: 2800 nM
HCoV-OC43 [9]; Betacoronavirus 1, OC43, RD, read-out: Virus Yield Reduction Assay EC90
  EC90: 2200 nM
HCoV-OC43 [9]; HCoV-OC43 in RD
  Selectivity Index (CC50/EC90): >39
HCoV-229E [10]; CC50/EC50, HCoV-229E in BHK-21
  Selectivity Index: >58^c
HCoV-229E [10]; BHK, 72 h, 50% protection of BHK cells, MTT, day 3 post-infection, Table 2A, read-out: EC50
  EC50: 1600 nM
HCoV-229E [10]; BHK, 72 h, 50% protection of BHK cells, MTT, day 3 post-infection, Table 2B, read-out: EC50
  EC50: 2000 nM
HCoV-229E [10]; BHK-21, HCoV-229E in BHK-21, dye staining, average of 2 experiments, Table 5, read-out: EC50
  EC50: 1800 nM
HCoV-229E [10]; BHK-21, HCoV-229E in BHK-21, the 2 experiments behind the average, read-out: EC50 of the single experiments
  EC50: 1600 nM
[11]
  EC90: 340 to 1200 nM
[12]
  AUC(0-t): 0.44 µM·h
  Cmax: 640 nM
  Tmax: 30 to 60 min
  half-life: 44.4 min
MERS-CoV (EMC); Middle East respiratory syndrome-related coronavirus, Huh-7, read-out: average EC90, MERS-CoV in Huh-7
  EC90: 36000 nM
MERS-CoV (EMC); read-out: average EC90, MERS-CoV in Huh-7
  EC90: 37000 nM
In vitro [13]
  CC50: > 86000 nM
Huh-7 cells
  Neutral Red Assay CC50: >50^ μg/mL
